Laboratory results taken from patent US4251528A, “Phthalazin-4-ylacetic acid derivatives” (Imperial Chemical Industries Limited, priority 1977, dated 1981).

How the values were obtained:
[1] = tested on: carageenin induced oedema; type: in vivo, rats; conditions: for overt toxicity: rat, in vivo; for inhibition of carageenin induced oedema: rats
Method: The compounds of the invention may therefore in addition be useful in the treatment of painful inflammatory joint diseases such as rheumatoid arthritis, osteoarthritis and ankylosing spondylitis. In this connection it is envisaged that they would be administered primarily orally at a daily dose in the range 10-50 mg./kg.

[2] = biological target: T1, aldose reductase (Rattus norvegicus, UniProt P07943); assay: streptozotocin diabetic rat test, residual sorbitol levels in tissues; type: in vivo; conditions: oral dosing at 10 mg./kg. for 5 days
T1 construct: the eye lenses and sciatic nerves are removed; from tissue; host or cells: rat sciatic nerve (and eye lens), enzyme acting in the living animal
Method: Thus, rats are made diabetic by dosing with streptozotocin and are then dosed daily with the test compound for 5 days. The animals are then killed and the eye lenses and sciatic nerves are removed. After a standard work-up procedure the residual sorbitol levels in each tissue are determined by gas liquid chromatography after conversion to the poly trimethylsilyl derivatives. Inhibition of aldose reductase in vivo is then assessed by comparing the residual sorbitol levels in tissues from the dosed diabetic group of rats with those of an undosed group of diabetic rats and an undosed, normal group of rats.
Alternatively, a modified test may be used in which the streptozotocin induced diabetic rats are dosed daily with test compound for two days. After 2-4 hours from the final dose the animals are killed and the sciatic nerves are removed and assessed for residual sorbitol levels as described above.
Active compounds in either of these tests reduce residual sorbitol levels to levels which are similar to those of normal, undosed rats. […] No overt toxic or other undesirable effects were detected with compounds of formula I at 100 mg./kg. in the above tests.

[3] = biological target: T2, purified aldose reductase isolated from bovine lenses (Bos taurus, UniProt P16116); assay: in vitro inhibition of purified aldose reductase (reduction of glucose to sorbitol, spectrophotometric); type: biochemical
T2 construct: purified aldose reductase is isolated in known manner from bovine lenses; from tissue; host or cells: bovine lens
Method: Thus, purified aldose reductase is isolated in known manner from bovine lenses. The percentage inhibition of these enzyme's ability in vitro to reduce aldoses to polyhydric alcohols, and particularly to reduce glucose to sorbitol, caused by a test compound is then determined using standard spectrophotometric methods. […] Thus, by way of illustration, 2-(2-fluoro-4-bromobenzyl)-1,2-dihydro-1-oxophthalazin-4-ylacetic acid has a Ki of 2.0×10^-8 M.

SMILES | overt toxicity [1] | inhibition of carageenin induced oedema [1] | residual sorbitol level in the sciatic nerve, relative to control undosed diabetic rats [2] | Ki [3] [nM]
O=C(O)Cc1nn(Cc2ccc(Br)cc2F)c(=O)c2ccccc12 [2-(2-fluoro-4-bromobenzyl)-1,2-dihydro-1-oxophthalazin-4-ylacetic acid] | without any sign of overt toxicity | significant inhibition | approximately 60% | 20
O=C(O)Cc1nn(Cc2ccc(Br)c(Cl)c2)c(=O)c2ccccc12 [2-(3-chloro-4-bromobenzyl)-1,2-dihydro-1-oxophthalazin-4-ylacetic acid] | without any sign of overt toxicity | significant inhibition | – | –
